Data as given in patent US20250206704A1, “ENGINEERED IONOPHORES FOR TRANSPORT OF METAL IONS” (The Brigham and Women's Hospital, Inc., priority 2022, published 2025).
In brackets after ≈: the same amount, converted by molar mass. Read-outs that look alike come from different tables or passages of the source.

Experiments:
U2OS cells [1] = assay: ICP-MS analysis of intracellular Zn(II) in U2OS cells; type: cell-based; conditions: 10 μM Zn(II) and 5 μM compound, 1 hour
Experimental: Next, Applicants used inductively coupled plasma mass spectrometry (ICP-MS) to validate the imaging assay and the ionophores activity (FIG. 1F). While the intracellular Zn^II levels where similar between DMSO and chelator 1, Zn^II concentrations inside cells were 3-fold higher when Applicants co-treated ionophores 8 and 9.
U2OS cells (˜200,000) were plated in a 6-well dish. After a day, the medium was aspirated, and Zn(II) (10 μM) and compounds (5 μM) containing media (2 mL) were added to each appropriate well. Cells were harvested by first washing each well with PBS containing EDTA (100 μM, 2×2.0 mL) and subsequently adding Milli-Q water ([…] to each well and incubating for 2-4 min. A portion of the resulting cell lysate (900 μL) was collected and transferred to an Eppendorf Safe-Lock tube, snap-frozen in N2(l), and then thawed at room temperature (RT) for a total of three freeze-thaw cycles. The insoluble lysate was pelleted (10 min at 10,000 g), and the soluble protein concentration of each sample was determined using the Pierce 660 nm Protein Assay in a 96-well plate (200 μL of reagent, 14 μL of sample, bovine serum albumin standard curve). Samples were then frozen and lyophilized overnight, and the resulting white, flaky solid was taken up in concentrated nitric acid (200 μL, ultrapure for trace metal analysis, BDH Aristar) and heated at 70° C. for 1 h. A portion of each sample (142 μL) was then diluted with water (2 mL) and a terbium internal standard (Agilent 5190-8590; stock at 10,000 parts per billion [ppb] in 10% nitric acid diluted to 100 ppb in Milli-Q water for addition to samples, 2 ppb final concentration), after which the metal content of the samples was assessed by ICP-MS. […] Therefore, 1 ppb was taken to be equal to 1 μg/L, and the molarity of a particular solution was considered equal to the measured concentration of a particular ion in ppb, divided by the molecular weight of the ion, multiplied by 10-6.

[2] = UV/Vis titration, stability constant (logK) with ZnCl2; type: physicochemical; conditions: UV/Vis titration with ZnCl2, TitrationFit
Excerpt: Applicants validated the design principles by confirming that the silyl group lowered the binding affinity and shielded the hydrophilic pocket. […] [17] […] Applicants confirmed that all compounds bound Zn^II with 1:1 stoichiometry (FIG. 12). […] Applicants superimposed the X-ray structure of the TIPS-containing Zn^II:9 complex with the literature precedented Zn^II:1 and observed significant structural distortion in the Zn^II:9 complex, which could explain the lower logK.
A solution of ligand was prepared in acetonitrile. The starting concentration was chosen to be around 0.10 mM, based on the absorption maximum of the compound. This solution (2.5 mL) was pipetted into a quartz cuvette with a 1-cm optical path length. The titration was performed by the stepwise addition of a 10-mM ZnC12 solution in acetonitrile. The absorption spectra were measured over the range of 250-800 nm. The calculation of the stability constants was accomplished using TitrationFit.1

[3] = system: Staphylococcus epidermidis; assay: MIC, broth microdilution; type: cell-based
Excerpt: (§1) Next, Applicants evaluated the antibacterial activities of the ionophores. First, Applicants determined their minimum inhibitory concentration (MIC) in the gram-positive bacterium that causes hospital-acquired infections, Staphylococcus epidermidis.
(§2) Applicants reasoned that limiting extracellular zinc with EDTA would abolish ionophore activity by depleting the available metal ions for membrane transport. […] [24]
(§3) Staphylococcus epidermidis ATCC® 12228™, Staphylococcus caprae ATCC® 51549™, Bacillus subtilis ATCC® 6051™, and Bacillus cereus ATCC® 14579™ were grown in cation-adjusted Mueller-Hinton broth (CA-MHB) (catalog no. 90922, Sigma) as per the Clinical and Laboratory Standards Institute guidelines.2 Bacteria were routinely grown at 37° C. under aerobic conditions.
(§4) The MIC assay was performed according to the Clinical and Laboratory Standards Institute protocols.^3 The antibacterial activities of the compounds were measured using the broth microdilution method. Serial dilutions of compounds were prepared in cation-adjusted Müller Hinton Broth. Each dilution (100 μL) was dispensed to each well of a round-bottom plate to obtain final concentrations ranging from 0.07815-40 μM. Bacteria were grown at 37° C. overnight on cation-adjusted Müller Hinton Broth. The bacterial solution was prepared in 0.9% saline and adjusted to obtain an OD600=0.1 using a SpectraMax M5 (Molecular Devices). The resultant suspension was diluted 1:20 with cation-adjusted Müller Hinton Broth. The resulting mixture (10 μL) was added to each well of the plates (approximately 5×10^4 CFU/well), mixed, and incubated at 37° C. for 24 h. The MIC value was determined as the minimum concentration that inhibited the growth of bacteria.

Bacillus cereus = assay: MIC, broth microdilution; type: cell-based; conditions: Table 4, read-out: Strain MIC B. cereus
Experimental: as §1, §3, §4

Bacillus subtilis = assay: MIC, broth microdilution; type: cell-based; conditions: Table 4, read-out: Strain MIC B. subtilis
Experimental: as §1, §3, §4

Staphylococcus caprae = assay: MIC, broth microdilution; type: cell-based; conditions: Table 4, read-out: Strain MIC S. caprae
Experimental: as §1, §3, §4

U2OS cells [4] = assay: U2OS cell viability assay (CellTiter-Glo); type: cell-based; conditions: Homo sapiens, cell viability, 48 h, 5 μM Zn^II, read-out: U2OS EC50 + 5 μM Zn^II
Experimental: as §2
U2OS cells were seeded in black 384-well plates at a density of 3,000 cells per well in 25 μL of medium per well. After seeding, the cells were left to adhere overnight. The compounds to be tested were added to the designated culture plates in 25 μL of medium in triplicate with a normalized DMSO concentration (0.05%) in all treatments, and the plates were placed at 37° C. in a humidified atmosphere containing 5% CO2. After 48 h, 40 μl of CellTiter-Glo (Promega) was added to each well and incubated for 30 min, after which the plate luminescence was analyzed in a PerkinElmer EnVision Manager 1.13 (PerkinElmer). The average growth of treated cells was calculated by correcting the values for background luminescence and was subsequently normalized to the average of the two lowest treatments of the compound in question. Data were plotted and fitted to a dose-response curve using GraphPad Prism 9.

[5] = system: S. epidermidis, S. caprae, B. subtilis, B. cereus; assay: Average MIC over the four gram-positive strains; type: cell-based
Experimental: as §1, §4

bacteria vs U2OS cells = assay: Antibacterial selectivity (average molar MIC in bacteria vs EC50 in U2OS cells); type: cell-based
[6] = Table 4, read-out: Strain MIC S. epidermidis
[7] = read-out: Average MIC (molar, in brackets)
[8] = ratio of average molar MIC and U2OS EC50, Table 4

Compound: CC(C)[Si](c1cccc(CN(Cc2ccccn2)Cc2ccccn2)c1O)(C(C)C)C(C)C [Compound 9, 2-((bis(pyridin-2-ylmethyl)amino)methyl)-6-(triisopropylsilyl)phenol]
- intracellular Zn^II level relative to DMSO (U2OS cells [1]): 3 fold
- logK (Zn^II binding) [2]: 6.9
- change of MIC with additional Zn^II in the media [3]: unaltered
- change of MIC in presence of EDTA ([3]; 50 μM EDTA): dramatically increased
- MIC [3, 6]: 1.2 µg/mL (≈ 2.6 µM)
- MIC ([3]; read-out: MIC): ~1.2 µg/mL (≈ 2.6 µM)
- MIC (Bacillus cereus): 1.2 µg/mL (≈ 2.6 µM)
- MIC (Bacillus subtilis): 1.2 µg/mL (≈ 2.6 µM)
- MIC (Staphylococcus caprae): 0.3 µg/mL (≈ 0.65 µM)
- CC50 (U2OS cells [4]): 14.2 µM
- MIC ([5]; read-out: Average MIC): 0.98 µg/mL
- MIC [5, 7]: 2.1 µM
- MIC ([5]; read-out: average MIC): 1 µg/mL
- antibacterial selectivity (bacteria vs U2OS cells): 6.8 times
- antibacterial selectivity (bacteria vs U2OS cells; [8]): 6.8

Compound: CC(C)(C)[Si](C)(C)c1cccc(CN(Cc2ccccn2)Cc2ccccn2)c1O [Compound 8, 2-((bis(pyridin-2-ylmethyl)amino)methyl)-6-(tert-butyldimethylsilyl)phenol]
- intracellular Zn^II level relative to DMSO (U2OS cells [1]): 3 fold
- logK (Zn^II binding) [2]: 7.5
- MIC [3, 6]: 4.2 µg/mL (≈ 10 µM)
- MIC ([3]; read-out: MIC): ~4.2 µg/mL (≈ 10 µM)
- MIC (Bacillus cereus): 4.2 µg/mL (≈ 10 µM)
- MIC (Bacillus subtilis): 4.2 µg/mL (≈ 10 µM)
- MIC (Staphylococcus caprae): 1.1 µg/mL (≈ 2.62 µM)
- CC50 (U2OS cells [4]): 76.5 µM
- MIC ([5]; read-out: Average MIC): 3.4 µg/mL
- MIC [5, 7]: 8.1 µM
- antibacterial selectivity (bacteria vs U2OS cells): 9.4 times
- antibacterial selectivity (bacteria vs U2OS cells; [8]): 9.4
